What was measured:
AChE from electric eel = molecular target: T1, AChE from electric eel (Electrophorus electricus, UniProt O42275); assay: biochemical; details: mean ± SD, n = three experiments; 25 °C, PBS pH 7.4, substrate ATCh 40 μM
T1 construct: purchased Sigma, St. Louis, MO, USA

BChE from equine serum = molecular target: T2, BChE from equine serum (Equus caballus, UniProt P81908); assay: In vitro BChE inhibition, modified Ellman's method; type: biochemical; details: for SI (index selectivity) = IC50 (AChE)/IC50 (BChE): higher value = higher selectivity to BChE
T2 construct: BChE (from equine serum); purchased Sigma, St. Louis, MO, USA; host or cells: equine serum
T2 sequence (P81908 whole entry): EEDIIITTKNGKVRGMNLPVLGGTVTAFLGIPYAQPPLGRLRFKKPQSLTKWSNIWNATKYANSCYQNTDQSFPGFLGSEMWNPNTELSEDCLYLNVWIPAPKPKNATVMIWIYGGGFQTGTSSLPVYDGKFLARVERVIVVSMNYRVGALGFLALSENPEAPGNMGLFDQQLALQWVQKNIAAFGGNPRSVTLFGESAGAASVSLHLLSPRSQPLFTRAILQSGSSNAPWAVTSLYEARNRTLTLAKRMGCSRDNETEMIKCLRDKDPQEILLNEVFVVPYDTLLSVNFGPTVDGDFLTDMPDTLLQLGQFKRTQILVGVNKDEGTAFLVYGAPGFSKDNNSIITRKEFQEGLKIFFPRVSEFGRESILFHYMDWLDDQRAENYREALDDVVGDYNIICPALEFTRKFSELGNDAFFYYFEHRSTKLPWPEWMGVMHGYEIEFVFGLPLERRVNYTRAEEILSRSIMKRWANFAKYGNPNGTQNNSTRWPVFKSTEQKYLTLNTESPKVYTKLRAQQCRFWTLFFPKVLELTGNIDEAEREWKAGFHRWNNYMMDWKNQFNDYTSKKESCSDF

T1 sequence (O42275 24-633): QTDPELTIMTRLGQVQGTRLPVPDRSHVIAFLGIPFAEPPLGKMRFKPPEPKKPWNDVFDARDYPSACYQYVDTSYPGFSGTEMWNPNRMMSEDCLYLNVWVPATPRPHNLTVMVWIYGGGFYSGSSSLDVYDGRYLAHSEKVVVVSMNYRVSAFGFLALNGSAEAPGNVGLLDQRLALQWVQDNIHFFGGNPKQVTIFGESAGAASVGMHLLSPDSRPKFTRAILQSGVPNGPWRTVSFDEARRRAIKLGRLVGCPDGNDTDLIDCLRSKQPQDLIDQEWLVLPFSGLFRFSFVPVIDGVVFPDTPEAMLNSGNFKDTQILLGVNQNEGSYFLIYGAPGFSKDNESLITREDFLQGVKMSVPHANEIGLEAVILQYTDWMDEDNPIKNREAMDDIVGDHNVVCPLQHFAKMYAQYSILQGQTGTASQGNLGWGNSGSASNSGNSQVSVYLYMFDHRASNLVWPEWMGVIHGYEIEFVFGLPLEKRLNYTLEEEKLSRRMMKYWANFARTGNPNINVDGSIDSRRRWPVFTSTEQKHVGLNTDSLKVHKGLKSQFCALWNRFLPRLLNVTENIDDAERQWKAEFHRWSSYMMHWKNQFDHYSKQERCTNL

Structure (SMILES) | IC50 (AChE from electric eel) | IC50 (BChE from equine serum) | SI (index selectivity) = IC50 (AChE)/IC50 (BChE) (BChE from equine serum)
CC(C(=O)c1cccc2ccccc12)N(C)C(=O)Oc1ccccc1 (stereo not drawn) [Compound 36] | 99.6 ± 5.88 µM | 12.7 ± 0.19 µM | 7.83
COC(=O)N(C)C(C)C(=O)c1cccc(Cl)c1 (stereo not drawn) [Compound 5, Methyl (1-(3-chlorophenyl)-1-oxopropan-2-yl)(methyl)carbamate] | 330 ± 42.1 µM | 113.6 ± 0.29 µM | 2.90
CC(C(=O)c1ccc(Br)c2ccccc12)N(C)C(=O)Oc1ccccc1 (stereo not drawn) [Compound 38, Phenyl (1-(4-bromonaphthalen-1-yl)-1-oxopropan-2-yl)(methyl)carbamate] | 61.7 ± 1.42 µM | 13 ± 0.28 µM | 4.76
COc1ccc(C(=O)C(C)N(C)C(=O)Oc2ccccc2)cc1 (stereo not drawn) [Compound 17, Phenyl (1-(4-methoxyphenyl)-1-oxopropan-2-yl)(methyl)carbamate] | 90.21 ± 0.73 µM | 106 ± 1.94 µM | 0.85
CC(C(=O)c1ccc(Cl)c2ccccc12)N(C)C(=O)OCc1ccccc1 (stereo not drawn) [Compound 40, Benzyl (1-(4-chloronaphthalen-1-yl)-1-oxopropan-2-yl)(methyl)carbamate] | 103.3 ± 0.41 µM | 42.75 ± 0.31 µM | 2.42
COC(=O)N(C)C(C)C(=O)c1ccc(OC)cc1 (stereo not drawn) [Compound 6, Methyl (1-(4-methoxyphenyl)-1-oxopropan-2-yl)(methyl)carbamate] | 147 ± 1.51 µM | 186.6 ± 1.55 µM | 0.79
CC(C(=O)c1ccc2c(c1)OCO2)N(C)C(=O)OCc1ccccc1 (stereo not drawn) [Compound 34, Benzyl (1-(benzo[d][1,3]dioxol-5-yl)-1-oxopropan-2-yl)(methyl)carbamate] | 75.6 ± 1.25 µM | 51.9 ± 1.18 µM | 1.46
CC(C(=O)c1ccc(Cl)cc1)N(C)C(=O)Oc1ccccc1 (stereo not drawn) [Compound 19, Phenyl (1-(4-chlorophenyl)-1-oxopropan-2-yl)(methyl)carbamate] | 44.2 ± 2.35 µM | 38.96 ± 0.28 µM | 1.14
CC(C(=O)c1ccc(Cl)c2ccccc12)N(C)C(=O)Oc1ccccc1 (stereo not drawn) [Compound 37, Phenyl (1-(4-chloronaphthalen-1-yl)-1-oxopropan-2-yl)(methyl)carbamate] | 30.6 ± 1.57 µM | 13.5 ± 0.47 µM | 2.26
COc1ccc(C(=O)C(C)N(C)C(=O)OCc2ccccc2)cc1 (stereo not drawn) [Compound 29, Benzyl (1-(4-methoxyphenyl)-1-oxopropan-2-yl)(methyl)carbamate] | 62.6 ± 0.65 µM | 57.39 ± 0.02 µM | 1.09
CC(C(=O)c1ccc(Br)c2ccccc12)N(C)C(=O)OCc1ccccc1 (stereo not drawn) [Compound 41, Benzyl (1-(4-bromonaphthalen-1-yl)-1-oxopropan-2-yl)(methyl)carbamate] | 128.3 ± 0.88 µM | 236 ± 16.3 µM | 0.54
CC(C(=O)c1cccc2ccccc12)N(C)C(=O)OCc1ccccc1 (stereo not drawn) [Compound 39, Benzyl methyl(1-(naphthalen-1-yl)-1-oxopropan-2-yl)carbamate] | 105.2 ± 0.99 µM | 18.94 ± 0.18 µM | 5.55
